Active and inactive are the calls of the source. The calls are words filed in the database; no cut-off is given here.
Legend:
[1] = system: OVCAR-3; test: Reduction of total Stat3 level in human OVCAR3 cells at 1 to 20 uM by Western blotting analysis; assay type: functional, cell-based
[2] = molecular target: Tyrosine-protein kinase JAK2 (Homo sapiens) (UniProt O60674); test: Inhibition of JAK2 (unknown origin) assessed as total JAK2 level at 10 uM after 6 hrs by cell-based Western blotting analysis
[3] = molecular target: Endothelial PAS domain-containing protein 1 (Homo sapiens) (UniProt Q99814); test: Inhibition of HIF-2 alpha in human PC3 cells after 18 hrs by Western blotting analysis in hypoxia condition; assay type: cell-based; conditions: PC-3
[4] = species: Homo sapiens; test: Inhibition of telomerase (unknown origin)
[5] = system: Mus musculus; test: Toxicity in Balb nu/nu mouse assessed as change in body weight at 2 mg/kg, ip administered every other day for 10 days measured after 19 days; assay type: organism-based; set-up: dose 2 mg/kg, route intraperitoneal; conditions: in vivo, 456 h
[6] = molecular target: Signal transducer and activator of transcription 3 (Homo sapiens) (UniProt P40763); conditions: PANC-1, 1 to 20 uM
Description: Inhibition of Stat3 phosphorylation in human PANC1 cells assessed as inhibition of Bcl2 expression at 1 to 20 uM by Western blotting analysis in normoxia condition

[7] = Antitumor activity against human PANC1 cells xenografted in Balb nu/nu mouse assessed as mean tumor weight at 2 mg/kg, ip administered every other day for 10 days measured after 19 days (reference value: 0.5 +/- 0.05 g); assay type: functional, PANC-1; conditions: route intraperitoneal
[8] = molecular target: Hypoxia-inducible factor 1-alpha (Homo sapiens) (UniProt Q16665); test: Inhibition of HIF-1 alpha in human PC3 cells after 18 hrs by Western blotting analysis in hypoxia condition; assay type: cell-based; conditions: PC-3
[9] = system: PANC-1; test: Inhibition of ERK phosphorylation in human PANC1 cells at 1 to 20 uM by Western blotting analysis; assay type: cell-based
[10] = molecular target: Hypoxia-inducible factor 1-alpha (Homo sapiens) (UniProt Q16665); test: Inhibition of HIF-1alpha in human MDA-MB-231 cells at 10 uM after 18 hrs by Western blotting analysis in hypoxia condition; assay type: cell-based
[11] = system: PANC-1; test: Reduction of total Stat3 level in human PANC1 cells at 0.5 to 20 uM by Western blotting analysis; assay type: functional, cell-based
[12] = molecular target: Hypoxia-inducible factor 1-alpha (Homo sapiens) (UniProt Q16665); test: Inhibition of HIF-1 alpha in human OVCAR3 cells assessed as inhibition of Bcl2 expression at 1 to 20 uM by Western blotting analysis in normoxia condition; assay type: cell-based; conditions: OVCAR-3
[13] = system: PANC-1; test: Antitumor activity against human PANC1 cells xenografted in Balb nu/nu mouse assessed as tumor regression at 2 mg/kg, ip administered every other day for 10 days measured after 19 days; assay type: functional, organism-based; set-up: dose 2 mg/kg
[14] = system: MCF7; test: Induction of apoptosis in human MCF7 cells assessed as reduction in cell viability at 8 uM after 12 to 48 hrs by MTT assay; assay type: functional, cell-based
[15] = system: MDA-MB-468; test: Inhibition of HIF-1 in human MDA-MB-468 cells assessed as reduction of GLUT1 mRNA expression at 5 to 10 uM by RT-PCR analysis in hypoxia condition; assay type: cell-based
[16] = molecular target: Histone acetyltransferase p300 (Homo sapiens) (UniProt Q09472); test: Inhibition of P300 in human MDA-MB-468 cells at 1 to 20 uM by Western blotting analysis; assay type: cell-based
[17] = molecular target: Proto-oncogene tyrosine-protein kinase Src (Homo sapiens) (UniProt P12931); test: Inhibition of Src kinase (unknown origin) phosphorylation at 10 uM after 6 hrs by cell-based Western blotting analysis
[18] = molecular target: Aryl hydrocarbon receptor nuclear translocator (Homo sapiens) (UniProt P27540); test: Inhibition of HIF-1 beta in human PC3 cells after 18 hrs by Western blotting analysis in hypoxia condition; assay type: cell-based; conditions: PC-3
[19] = molecular target: Endothelial PAS domain-containing protein 1 (Homo sapiens) (UniProt Q99814); test: Inhibition of HIF-2 alpha in human MDA-MB-468 cells at 1 to 20 uM by Western blotting analysis in hypoxia condition; assay type: cell-based
[20] = system: MCF7; test: Induction of apoptosis in human MCF7 cells assessed as reduction in cell viability at 10 uM after 12 to 48 hrs by MTT assay; assay type: functional, cell-based
[21] = molecular target: Hypoxia-inducible factor 1-alpha (Homo sapiens) (UniProt Q16665); test: Inhibition of HIF-1 alpha in human MDA-MB-468 cells assessed as proteasomal degradation at 4 to 7 uM after 18 hrs by immunoblotting analysis in hypoxia condition in presence of MG132; assay type: cell-based
[22] = molecular target: Signal transducer and activator of transcription 3 (Homo sapiens) (UniProt P40763); conditions: 10 uM
Description: Inhibition of STAT3 (unknown origin) phosphorylation at 10 uM after 30 mins by cell-based Western blotting analysis

[23] = molecular target: Hypoxia-inducible factor 1-alpha (Homo sapiens) (UniProt Q16665); test: Inhibition of HIF-1 alpha in human PANC1 cells assessed as inhibition of Bcl2 expression at 1 to 20 uM by Western blotting analysis in hypoxia condition; assay type: cell-based; conditions: PANC-1
[24] = system: MDA-MB-231; test: Antitumor activity against human MDA-MB-231 cells xenografted in Balb nu/nu mouse assessed as reduction in tumor growth at 2 mg/kg, ip administered every other day for 10 days; assay type: functional, organism-based; set-up: dose 2 mg/kg
[25] = molecular target: Hypoxia-inducible factor 1-alpha (Homo sapiens) (UniProt Q16665); test: Inhibition of HIF-1 alpha in human MDA-MB-468 cells assessed as proteasomal degradation at 4 to 7 uM after 18 hrs by immunoblotting analysis in hypoxia condition; assay type: cell-based
[26] = system: MDA-MB-468; test: Inhibition of HIF-1 in human MDA-MB-468 cells assessed as reduction of VEGF mRNA expression at 5 to 10 uM by RT-PCR analysis in hypoxia condition; assay type: cell-based
[27] = molecular target: Hypoxia-inducible factor 1-alpha (Homo sapiens) (UniProt Q16665); test: Inhibition of GST-tagged HIF-1 alpha (531 to 826) (unknown origin) expressed in Escherichia coli BL21(DE3) assessed as inhibition of GST-tagged HIF-1 alpha/p300 interaction at 5 ug after overnight incubation by pull down assay in hypoxia condition
[28] = system: MDA-MB-231; test: Induction of apoptosis in human MDA-MB-231 cells assessed as reduction in cell viability at 1 to 10 uM by MTT assay; assay type: functional, cell-based
[29] = molecular target: Proto-oncogene tyrosine-protein kinase Src (Homo sapiens) (UniProt P12931); test: Inhibition of Src kinase (unknown origin) assessed as total SRC level at 10 uM after 6 hrs by cell-based Western blotting analysis
[30] = molecular target: Signal transducer and activator of transcription 3 (Homo sapiens) (UniProt P40763); test: Inhibition of Stat3 in human MDA-MB-231 cells assessed as inhibition of Stat3 phosphorylation at 10 uM after 18 hrs by Western blotting analysis; assay type: cell-based
[31] = system: MDA-MB-468; test: Reduction of total Stat3 level in human MDA-MB-468 cells at 1 to 20 uM by Western blotting analysis; assay type: functional, cell-based
[32] = molecular target: Signal transducer and activator of transcription 3 (Homo sapiens) (UniProt P40763); conditions: 10 uM; remark: listed apart in the source
Description: Inhibition of STAT3 (unknown origin) assessed as total STAT3 level at 10 uM after 6 hrs by cell-based Western blotting analysis

[33] = system: MDA-MB-231; test: Antitumor activity against human MDA-MB-231 cells xenografted in Balb nu/nu mouse assessed as reduction in tumor growth at 5 mg/kg, po administered every other day for 10 days; assay type: functional, organism-based; set-up: dose 5 mg/kg
[34] = system: MDA-MB-468; test: Induction of apoptosis in human MDA-MB-468 cells assessed as reduction in cell viability at 1 to 10 uM by MTT assay; assay type: functional, cell-based
[35] = molecular target: Signal transducer and activator of transcription 3 (Homo sapiens) (UniProt P40763); conditions: MDA-MB-468, 1 to 20 uM
Description: Inhibition of Stat3 phosphorylation in human MDA-MB-468 cells assessed as inhibition of Bcl2 expression at 1 to 20 uM by Western blotting analysis in hypoxia condition

[36] = molecular target: Histone acetyltransferase p300 (Homo sapiens) (UniProt Q09472); test: Inhibition of P300 in human PC3 cells after 18 hrs by Western blotting analysis in hypoxia condition; assay type: cell-based; conditions: PC-3
[37] = molecular target: RAC-alpha serine/threonine-protein kinase (Homo sapiens) (UniProt P31749); test: Inhibition of AKT phosphorylation in human PANC1 cells at 1 to 20 uM by Western blotting analysis; assay type: cell-based; conditions: PANC-1
Chain of RAC-alpha serine/threonine-protein kinase (Homo sapiens) (P31749 whole entry): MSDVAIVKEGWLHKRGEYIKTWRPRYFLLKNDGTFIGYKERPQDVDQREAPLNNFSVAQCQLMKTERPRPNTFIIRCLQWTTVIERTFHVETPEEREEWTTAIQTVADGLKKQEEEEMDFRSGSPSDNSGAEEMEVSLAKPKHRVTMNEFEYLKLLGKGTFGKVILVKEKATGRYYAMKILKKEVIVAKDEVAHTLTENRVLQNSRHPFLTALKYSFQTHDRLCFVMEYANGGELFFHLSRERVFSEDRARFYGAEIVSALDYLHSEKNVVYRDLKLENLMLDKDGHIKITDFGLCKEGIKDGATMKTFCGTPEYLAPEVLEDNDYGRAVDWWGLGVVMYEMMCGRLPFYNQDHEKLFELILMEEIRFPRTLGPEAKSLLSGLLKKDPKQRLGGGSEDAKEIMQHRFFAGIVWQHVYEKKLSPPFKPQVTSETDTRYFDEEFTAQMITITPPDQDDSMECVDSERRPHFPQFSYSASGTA

Chain of Hypoxia-inducible factor 1-alpha (Homo sapiens) (Q16665 whole entry, looked up): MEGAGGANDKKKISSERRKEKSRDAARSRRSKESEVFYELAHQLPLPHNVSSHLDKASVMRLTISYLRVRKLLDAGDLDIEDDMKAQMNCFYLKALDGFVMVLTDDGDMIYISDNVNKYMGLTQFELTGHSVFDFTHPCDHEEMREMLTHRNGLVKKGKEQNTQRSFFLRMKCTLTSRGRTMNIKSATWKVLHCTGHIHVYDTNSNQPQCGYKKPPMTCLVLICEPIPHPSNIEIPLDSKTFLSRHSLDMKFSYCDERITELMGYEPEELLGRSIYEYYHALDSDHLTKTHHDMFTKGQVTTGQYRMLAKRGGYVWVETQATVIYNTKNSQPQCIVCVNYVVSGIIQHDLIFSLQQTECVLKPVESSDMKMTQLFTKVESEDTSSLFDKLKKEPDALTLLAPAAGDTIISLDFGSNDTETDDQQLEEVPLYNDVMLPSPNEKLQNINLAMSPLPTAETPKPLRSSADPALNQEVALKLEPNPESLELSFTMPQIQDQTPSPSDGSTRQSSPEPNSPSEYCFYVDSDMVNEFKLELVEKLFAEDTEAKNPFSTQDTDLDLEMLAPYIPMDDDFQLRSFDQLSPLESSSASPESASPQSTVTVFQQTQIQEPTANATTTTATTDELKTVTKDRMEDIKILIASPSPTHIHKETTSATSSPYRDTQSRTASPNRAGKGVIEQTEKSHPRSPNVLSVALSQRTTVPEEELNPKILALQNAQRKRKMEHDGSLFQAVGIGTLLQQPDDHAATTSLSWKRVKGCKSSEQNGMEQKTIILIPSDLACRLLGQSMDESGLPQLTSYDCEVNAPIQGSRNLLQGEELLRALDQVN
Chain of Signal transducer and activator of transcription 3 (Homo sapiens) (P40763 whole entry): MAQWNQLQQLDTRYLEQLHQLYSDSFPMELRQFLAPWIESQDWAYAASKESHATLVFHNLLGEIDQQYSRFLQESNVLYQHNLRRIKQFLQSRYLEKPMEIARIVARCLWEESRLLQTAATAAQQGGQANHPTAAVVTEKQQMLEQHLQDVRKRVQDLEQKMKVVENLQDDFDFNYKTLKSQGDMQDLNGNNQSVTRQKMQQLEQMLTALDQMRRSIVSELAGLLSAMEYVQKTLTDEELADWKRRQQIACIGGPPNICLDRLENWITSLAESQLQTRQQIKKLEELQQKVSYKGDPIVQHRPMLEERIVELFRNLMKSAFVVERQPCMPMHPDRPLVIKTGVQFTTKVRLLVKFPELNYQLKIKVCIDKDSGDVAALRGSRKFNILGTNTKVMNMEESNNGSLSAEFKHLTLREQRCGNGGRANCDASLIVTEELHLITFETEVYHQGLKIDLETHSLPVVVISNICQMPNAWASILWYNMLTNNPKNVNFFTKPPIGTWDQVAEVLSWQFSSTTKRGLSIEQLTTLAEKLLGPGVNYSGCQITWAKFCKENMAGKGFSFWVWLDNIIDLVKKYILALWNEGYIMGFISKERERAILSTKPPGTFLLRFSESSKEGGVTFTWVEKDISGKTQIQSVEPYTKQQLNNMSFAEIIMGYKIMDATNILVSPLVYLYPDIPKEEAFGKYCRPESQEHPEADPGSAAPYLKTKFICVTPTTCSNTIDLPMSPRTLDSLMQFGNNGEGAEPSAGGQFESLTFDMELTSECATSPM
Chain of Histone acetyltransferase p300 (Homo sapiens) (Q09472 whole entry): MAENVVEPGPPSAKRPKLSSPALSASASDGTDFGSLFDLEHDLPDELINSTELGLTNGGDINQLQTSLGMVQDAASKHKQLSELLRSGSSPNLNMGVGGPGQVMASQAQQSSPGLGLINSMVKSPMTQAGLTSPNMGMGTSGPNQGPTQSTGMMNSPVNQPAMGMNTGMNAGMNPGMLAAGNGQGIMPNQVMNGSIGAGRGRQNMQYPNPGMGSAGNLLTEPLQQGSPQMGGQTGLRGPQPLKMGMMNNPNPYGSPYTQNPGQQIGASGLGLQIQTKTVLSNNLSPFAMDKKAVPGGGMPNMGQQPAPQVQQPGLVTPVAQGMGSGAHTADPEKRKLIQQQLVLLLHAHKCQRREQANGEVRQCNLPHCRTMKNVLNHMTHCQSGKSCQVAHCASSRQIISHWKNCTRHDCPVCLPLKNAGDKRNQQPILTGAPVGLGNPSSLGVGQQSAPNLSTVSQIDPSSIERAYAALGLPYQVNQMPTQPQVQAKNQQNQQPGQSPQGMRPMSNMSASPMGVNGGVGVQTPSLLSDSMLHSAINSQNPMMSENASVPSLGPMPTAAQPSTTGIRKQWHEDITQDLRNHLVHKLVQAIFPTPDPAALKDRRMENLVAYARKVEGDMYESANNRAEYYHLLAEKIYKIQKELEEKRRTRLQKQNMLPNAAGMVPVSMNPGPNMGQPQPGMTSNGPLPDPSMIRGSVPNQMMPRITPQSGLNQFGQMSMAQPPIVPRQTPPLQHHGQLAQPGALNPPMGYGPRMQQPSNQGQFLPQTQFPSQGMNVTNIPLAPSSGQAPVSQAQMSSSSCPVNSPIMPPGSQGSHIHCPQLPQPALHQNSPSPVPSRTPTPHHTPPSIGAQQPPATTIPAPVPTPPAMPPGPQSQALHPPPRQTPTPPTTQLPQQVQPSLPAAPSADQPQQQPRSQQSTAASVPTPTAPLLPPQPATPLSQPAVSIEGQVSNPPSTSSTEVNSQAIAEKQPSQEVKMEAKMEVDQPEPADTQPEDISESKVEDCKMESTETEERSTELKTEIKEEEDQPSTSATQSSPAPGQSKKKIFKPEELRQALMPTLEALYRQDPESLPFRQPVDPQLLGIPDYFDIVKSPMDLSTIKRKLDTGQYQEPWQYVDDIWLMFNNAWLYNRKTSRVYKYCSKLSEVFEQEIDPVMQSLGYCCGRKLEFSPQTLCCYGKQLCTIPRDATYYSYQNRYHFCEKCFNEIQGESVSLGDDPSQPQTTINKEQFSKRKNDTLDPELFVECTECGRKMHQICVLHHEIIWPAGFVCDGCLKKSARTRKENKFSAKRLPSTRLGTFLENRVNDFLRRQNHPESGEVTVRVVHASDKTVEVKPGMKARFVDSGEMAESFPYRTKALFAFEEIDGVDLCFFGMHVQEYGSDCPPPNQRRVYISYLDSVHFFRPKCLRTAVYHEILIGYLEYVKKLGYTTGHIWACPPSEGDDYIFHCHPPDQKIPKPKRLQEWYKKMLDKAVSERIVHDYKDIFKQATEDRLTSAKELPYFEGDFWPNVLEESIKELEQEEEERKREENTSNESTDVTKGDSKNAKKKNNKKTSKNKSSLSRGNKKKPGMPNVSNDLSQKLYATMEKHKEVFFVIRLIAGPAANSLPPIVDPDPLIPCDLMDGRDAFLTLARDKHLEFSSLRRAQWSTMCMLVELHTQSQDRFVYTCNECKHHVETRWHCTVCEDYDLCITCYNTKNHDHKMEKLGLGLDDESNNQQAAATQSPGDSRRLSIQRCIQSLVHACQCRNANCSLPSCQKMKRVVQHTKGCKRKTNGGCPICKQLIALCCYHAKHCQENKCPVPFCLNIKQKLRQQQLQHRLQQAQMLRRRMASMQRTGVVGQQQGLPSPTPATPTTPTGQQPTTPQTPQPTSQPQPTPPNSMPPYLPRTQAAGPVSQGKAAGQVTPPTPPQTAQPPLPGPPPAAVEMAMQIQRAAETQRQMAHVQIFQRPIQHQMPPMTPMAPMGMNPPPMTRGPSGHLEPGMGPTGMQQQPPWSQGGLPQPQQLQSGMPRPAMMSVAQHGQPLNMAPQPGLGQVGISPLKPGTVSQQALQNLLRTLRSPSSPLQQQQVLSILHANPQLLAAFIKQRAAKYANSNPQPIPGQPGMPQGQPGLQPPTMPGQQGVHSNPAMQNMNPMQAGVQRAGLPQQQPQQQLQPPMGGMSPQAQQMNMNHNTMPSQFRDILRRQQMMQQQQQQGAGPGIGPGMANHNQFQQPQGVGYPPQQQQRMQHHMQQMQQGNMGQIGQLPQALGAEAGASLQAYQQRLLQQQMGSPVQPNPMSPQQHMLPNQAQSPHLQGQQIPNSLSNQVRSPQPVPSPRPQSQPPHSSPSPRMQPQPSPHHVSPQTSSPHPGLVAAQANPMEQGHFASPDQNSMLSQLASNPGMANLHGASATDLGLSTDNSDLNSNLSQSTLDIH
Chain of Proto-oncogene tyrosine-protein kinase Src (Homo sapiens) (P12931 2-536 limits assumed): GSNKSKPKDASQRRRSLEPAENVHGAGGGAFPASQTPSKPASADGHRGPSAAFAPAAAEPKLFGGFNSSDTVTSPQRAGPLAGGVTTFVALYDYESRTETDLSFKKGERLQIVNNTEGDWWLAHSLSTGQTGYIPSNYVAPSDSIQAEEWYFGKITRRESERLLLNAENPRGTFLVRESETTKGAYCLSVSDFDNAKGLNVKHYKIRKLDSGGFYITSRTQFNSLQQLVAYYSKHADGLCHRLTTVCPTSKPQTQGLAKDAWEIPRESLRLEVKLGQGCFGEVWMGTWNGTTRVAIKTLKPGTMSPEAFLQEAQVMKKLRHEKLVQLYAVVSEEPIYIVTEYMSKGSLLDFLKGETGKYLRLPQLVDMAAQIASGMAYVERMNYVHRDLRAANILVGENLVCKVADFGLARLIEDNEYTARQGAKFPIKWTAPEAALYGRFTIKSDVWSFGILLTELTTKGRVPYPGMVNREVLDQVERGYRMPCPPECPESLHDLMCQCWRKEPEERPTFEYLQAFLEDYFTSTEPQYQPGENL

- inhibition [2]: inactive
- inhibition [3]: Active
- inhibition [4]: Active
- inhibition [6]: Active
- inhibition [8]: Active
- inhibition [10]: Active
- inhibition [12]: Active
- inhibition [16]: inactive
- inhibition [17]: inactive
- inhibition [18]: inactive
- inhibition [19]: Active
- inhibition [21]: Active
- inhibition [22]: Active
- inhibition [23]: Active
- inhibition [25]: Active
- inhibition [27]: Active
- inhibition [29]: inactive
- inhibition [30]: Active
- inhibition [32]: inactive
- inhibition [35]: Active
- inhibition [36]: inactive
- inhibition [37]: inactive
SMILES: CN(C)CCCN1C(=O)c2ccc3c4ccc5c6c(ccc(c7ccc(c2c37)C1=O)c64)C(=O)N(CCCN(C)C)C5=O
- Activity [1]: Active
- Activity [5]: Non-toxic
- Activity [7]: 0.06 g
- inhibition [9]: inactive
- Activity [11]: Active
- Activity [13]: Active
- Activity [14]: Active
- inhibition [15]: Active
- Activity [20]: Active
- Activity [24]: Active
- inhibition [26]: Active
- Activity [28]: Active
- Activity [31]: Active
- Activity [33]: Active
- Activity [34]: Active

— ChEMBL document CHEMBL3124876, “A perylene derivative regulates HIF-1α and Stat3 signaling pathways” (Bioorg Med Chem, 2014)
